# Laboratory results as given in patent US20200246364A1, “MEDICAL APPLICATION OF COMPOSITION OF FRUCTOSE-1,6-BISPHOSPHATE AND BLOOD CONCENTRATION STABILIZER THEREOF” (ZHEJIANG UNIVERSITY, priority 2017, published 2020).
# Key:
# KNS-89 [1] = experiment: Intracellular glycolytic intermediates (LC-MS/MS); assay type: cell-based, human; conditions: KNS-89, 1.6 mM, 36 h
# U87-MG = experiment: Western Blot of key glycolytic enzymes; assay type: cell-based, human; conditions: 0.8 mM, 1 h to 48 h
# Procedure: Human glioma cell strains (U87-MG, KNS-89, SHG-44) were respectively incubated in culture media containing 0.8 mM of trisodium fructose-1,6-bisphosphate salt, and 1.6 mM of trisodium fructose-1,6-bisphosphate salt, and 1.6 mM of 2-deoxyglucose, and the contents of lactic acid as the final glycolytic product released by the cells in the culture media were measured after 12 h, 24 h, 36 h, and 48 h. […] Human glioma cell strain (U87-MG) was incubated in the culture medium containing 0.8 mM of trisodium fructose-1,6-bisphosphate salt for 1 h, 3 h, 6 h, 12 h, 24 h, 36 h, and 48 h, and level changes of key metabolic enzymes in the glycolytic pathway of cells were measured by Western Blot at the respective time points.
# SHG-44 [2] = experiment: Mitochondrial oxidative phosphorylation in glioma cells (ATP/ADP, NADH/NAD+, ATP); assay type: cell-based, human
# U87MG = experiment: Western Blot of metabolic enzymes and epigenetic proteins, 5-hmC immunocytochemistry; assay type: cell-based, human; conditions: 1.6 mM
# Procedure: Human glioma cell strain (U87MG) was cultured in a medium containing 1.6 mM of trisodium fructose-1,6-bisphosphate for 36 h, and then cytoplasm and mitochondria were separated. Levels of tricarboxylic acid circulation intermediates in cytoplasm and mitochondria were respectively measured by LC-MS/MS.
# Human glioma cell strain (U87MG) was respectively cultured in the medium containing 1.6 mM of trisodium fructose-1,6-bisphosphate for 0, 1, 3, 6, 12, 24, 36, and 48 h, and the changes of protein levels of enzymes related to fatty acid and nucleic acid biosynthetic pathway were investigated by Western Blot (WB).
# Human glioma cell strain (U87MG) was respectively cultured in the medium containing 1.6 mM of trisodium fructose-1,6-bisphosphate for 24 h and 36 h, and then a level of 5-hydroxymethylcytosine (5-hmC) was measured by an immunocytochemistry method.
# C6 = experiment: Reactive oxygen species and mitochondrial membrane potential; assay type: cell-based, rat; conditions: C6, 0.8 mM
# KNS-89 [3] = experiment: Glutathiones and NADPH/NADP+ (LC-MS/MS); assay type: cell-based, human; conditions: KNS-89, 1.6 mM, 36 h
# Procedure: (§1) Rat glioma cell strain (C6) and human glioma cell strain (KNS-89, SHG-44) were respectively cultured in a medium containing 1.6 mM of trisodium fructose-1,6-bisphosphate for 36 h, and important antioxidants in cells were measured by liquid-mass spectrometry (LC-MS/MS).
# SHG-44 [4] = experiment: Glutathiones and NADPH/NADP+ (LC-MS/MS); assay type: cell-based, human; conditions: SHG-44, 1.6 mM, 36 h
# Procedure: as §1
# [5] = test system: fructose-1,6-bisphosphatase 1; experiment: Kidney protein level of fructose-1,6-bisphosphatase 1 after 14 days treatment (Western Blot); assay type: in vivo; conditions: SD rats, 14 days i.g.; FBP 500 mg/kg, metformin 150 mg/kg, sitagliptin 20 mg/kg; vs control group
# Procedure: 180-200 g SD rats were divided into 4 groups: a saline control group, a trisodium fructose-1,6-bisphosphate hydrate group (500 mg/kg, i.g), a metformin group (150 mg/kg, i.g) or a sitagliptin group (20 mg/kg, i.g), and a trisodium fructose-1,6-bisphosphate and metformin or sitagliptin combination group, 5 rats in each group. All groups were intragastrically treated, metformin or sitagliptin was administrated 0.5 h before fructose-1,6-bisphosphate, and this was repeated in 14 consecutive days. At 3 hours after the last intragastric treatment with fructose-1,6-bisphosphate, rat blood was collected to detect the blood concentration of FBP, kidney tissue was taken and the protein level of fructose-1,6-bisphosphatase 1 was measured by Western Blot.
# [6] = test system: peripheral neuralgia induced by paclitaxel; experiment: Peripheral neuralgia induced by paclitaxel, hot plate experiment; assay type: in vivo, ICR mice
# Procedure: In this study, paclitaxel (2.8 mg/kg, 10 ml/kg) was injected intraperitoneally every other day, 4 times in total (days 1, 3, 5, 7) to induce peripheral neuralgia model in ICR female mice with a body weight of 20-24 g, and this model was used to observe the preventive effect of fructose-1,6-bisphosphate on the peripheral neuralgia caused by the chemotherapeutic agent. The paclitaxel antitumor agent is one of the first-line agents for human malignant tumors. Dose-limiting toxicity of paclitaxel mainly includes neurotoxicity and myelosuppression, the latter has been successfully overcome by using granulocyte colony-stimulating factor. However, the neurotoxicity, behaving as neuropathic pain, is still a worldwide problem, because the pain caused by this chemotherapy is not sensitive to any clinically used analgesics, and thus some patients have to reduce the dose until withdrawing the agent, which seriously affects the effect of the chemotherapy or even causes a failure of the chemotherapy. Some pains caused by the paclitaxel chemotherapy may not be eliminated immediately after the agent withdrawal, and often continues for months or even years, which seriously affects the life quality of tumor patients. In view of this, the peripheral neuralgia caused by paclitaxel is a representative pain after cancer treatment, and the animal pain model induced by paclitaxel is also representative.
# A hot plate method was used to screen mice having relatively uniform heat-sensitive responses for experiments. […]
# The heat-sensitive response of hind paws of the mice was measured with a hot plate experiment (52° C.±0.3) at 2 pm to 4 pm every day. […] In this way, a latent period of licking or retracting the hind paws was recorded. […] After the paclitaxel injection finished, the fructose-1,6-bisphosphate was continuously administrated and the heat-sensitive responses of the animals in each group were measured. […]
# chronic epilepsy in rats = conditions: administered intragastrically; cited from earlier work
# SW620 = experiment: cells; conditions: Homo sapiens, SW-620, 72 h
# Procedure: Human intestinal cancer cell strains SW620 and HCT-8, which had been incubated for 24 hours, were respectively incubated in a medium containing 0.8 mM of trisodium fructose-1,6-bisphosphate, a medium containing 0.2 mM of metformin/100 μM of sitagliptin, and a medium containing 0.8 mM of trisodium fructose-1,6-bisphosphate and 0.2 mM of metformin/100 μM of sitagliptin for 72 h. A control group (Con) was not treated with the agent. Cell viability was determined by Sulforhodamine B (SRB) staining analysis method.
# melanoma B16 cell = experiment: Cell viability, Sulforhodamine B (SRB) staining; conditions: Mus musculus, B16, 72 h
# Procedure: Mouse melanoma B16 cells, which had been incubated for 24 hours, were incubated in a medium containing 0.8 mM of trisodium fructose-1,6-bisphosphate, a medium containing 20 μM of sitagliptin, and a medium containing 0.8 mM of trisodium fructose-1,6-bisphosphate and 20 μM of sitagliptin for 72 h. A control group (Con) was not treated with the agent. Cell viability was determined by Sulforhodamine B (SRB) staining analysis method.
# [7] = read-out: cell viability (Con = 100)
# [8] = read-out: cell viability inhibited
smiles,measurement,setting,value
"O=C(COP(=O)(O)O)[C@@H](O)[C@H](O)[C@H](O)COP(=O)(O)O [FBP, fructose-1,6-bisphosphate]",Increase folds of intracellular DHAP (compared with the control group),KNS-89 [1],8.74 folds
same,Increase folds of intracellular F6P (compared with the control group),KNS-89 [1],1.89 folds
same,Increase folds of intracellular FBP (compared with the control group),KNS-89 [1],21.97 folds
same,Increase folds of intracellular GAP (compared with the control group),KNS-89 [1],19.75 folds
same,Increase folds of intracellular PGA (compared with the control group),KNS-89 [1],3.28 folds
same,"levels of HK2, PFKFB3, PKM2 and LDH5 (Western Blot)",U87-MG,quickly and continuously down-regulated
same,ratio of ATP/ADP (CON = 1.00),"SHG-44 [2]; SHG-44, 0.8 mM or 1.6 mM, 36 h",3.82 ± 0.68
same,ratio of NADH/NAD+ (CON = 1.00),"SHG-44 [2]; SHG-44, 0.8 mM or 1.6 mM, 36 h",3.40 ± 0.15
same,ATP level,"SHG-44 [2]; SHG-44, 36 h, vs control group",significantly increased
same,"epigenetic related proteins of tumor cells (Ac-Foxo, H3K9ac, H3K9me2)",U87MG,quickly down-regulated
same,"protein levels of malate shuttle-related enzymes (ME1, MDH1, MDH2, GOT1, GOT2)",U87MG,decreased significantly over time
same,"protein levels of enzymes related to fatty acid and nucleic acid biosynthesis (CAD, TS, ACL, FASN)","U87MG; 0-48 h, Western Blot",decreased significantly over time
same,level of 5-hydroxymethylcytosine (5-hmC),"U87MG; 24 h and 36 h, immunocytochemistry",significantly increased
same,Relative level of mitochondrial membrane potential (compared with the control group),C6; 12 h,0.8 ± 0.14
same,Relative level of reactive oxygen species (compared with the control group),C6; 12 h,1.26 ± 0.04
same,Relative level of mitochondrial membrane potential (compared with the control group),C6; 24 h,0.6 ± 0.11
same,Relative level of reactive oxygen species (compared with the control group),C6; 24 h,1.89 ± 0.03
same,Relative level of mitochondrial membrane potential (compared with the control group),C6; 48 h,0.1 ± 0.09
same,Relative level of mitochondrial membrane potential (compared with the control group),C6; 72 h,0.1 ± 0.07
same,Relative content of GSH (compared with the control group),KNS-89 [3],0.01 ± 0.00
same,Relative content of GSSG (compared with the control group),KNS-89 [3],0.33 ± 0.02
same,Relative ratio of NADPH to NADP+ (compared with the control group),KNS-89 [3],0.44 ± 0.04
same,Relative content of GSH (compared with the control group),SHG-44 [4],0.67 ± 0.01
same,Relative content of GSSG (compared with the control group),SHG-44 [4],0.38 ± 0.01
same,Relative ratio of NADPH to NADP+ (compared with the control group),SHG-44 [4],0.39 ± 0.01
same,"protein level of fructose-1,6-bisphosphatase 1 in kidney tissue (Western Blot)",[5],significantly up-regulated
same,hind paw retraction latent period (hot plate 52° C.),"[6]; 400 mg/kg ig once per day, day 7 and any later time point, vs model group",significantly longer
same,efficacy against peripheral neuralgia over treatment duration,[6]; high-dose FBP (400 mg/kg),gradually disappears
same,efficacy against peripheral neuralgia over treatment duration,[6]; low-dose FBP (200 mg/kg),gradually increases
same,long-term effective dose for chronic epilepsy,chronic epilepsy in rats,100 to 200 mg/kg/day
same,viability at 800 µM,SW620; [7],49.9 ± 3.91%
same,cytotoxicity at 800 µM,SW620; [8],41%
same,viability at 800 µM,melanoma B16 cell; [7],77.7 ± 7.29%
same,cytotoxicity at 800 µM,melanoma B16 cell; [8],22%
